According to patent US20240382400A1 (The Procter & Gamble Company, priority 2023, published 2024):
Like-named read-outs stand apart in the source and are kept apart here.

Tests used:
[1] = acidic pKa; cited from earlier work
[2] = cited from earlier work
[3] = pH 7.0 and 20° C.; cited from earlier work
PGE2 = PGE2 anti-inflammation assay in-vitro; format: cell-based; settings: compared to niacinamide

Compound: O=C([O-])C=Cc1ccccc1.[Na+] [Sodium Cinnamate]
- pKa [1]: 4.32

Compound: O=C(O)C=Cc1ccccc1 [cinnamic acid]
- pKa [1]: 4.32

Compound: O=C(O)/C=C/c1ccc(O)cc1 [p-coumaric acid]
- conjugate base form ([2]; pH 3): approximately 13.4%
- conjugate base form ([2]; pH 7): approximately 99.6%
- solubility in water [3]: approximately 345 mg/mL

Compound: Methyl niacinamide
- efficacy in PGE2 anti-inflammation assay (PGE2): equivalent and/or improved efficacy to niacinamide
